From PubChem BioAssay AID651630 (Sanford-Burnham Center for Chemical Genomics, 2012)
pIC50: −log10 of the molar value. The source made the active and inactive calls.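 The calls were made as follows: active = lipid-stain IC50 at or below a set limit, with nuclear-stain toxicity IC50 at least five times higher; inactive = the rest.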

Experiments:
DAPI = test: TAG lipid buildup inhibition with viability readout – cell-based, panel, Nile Red and DAPI fluorescence, H9c2, dose response (AID 651630); details: H9c2 cells, DAPI nuclear fluorescence (cytotoxicity counter-readout), oleic acid;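 also: cells exposed to compound overnight before fixation and staining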
TAG = test: as above; details: H9c2 cells, Nile Red TAG fluorescence, oleic acid

In the case of `C=CC[C@@H](CC(=O)N(CCO)Cc1ccccc1)C(=O)N[C@H](COC(=O)[C@@H](CC=C)Cc1ccc(F)cc1)Cc1c[nH]c2ccccc12`, the IC50 cytotoxicity (DAPI nuclear signal decrease) (DAPI; mean of runs) was > 25 µM (inactive), the IC50 cytotoxicity (DAPI nuclear signal decrease) (DAPI; run 1) was greater than 25 µM and the IC50 cytotoxicity (DAPI nuclear signal decrease) (DAPI; run 2) was greater than 25 µM. For the same compound, the pIC50 (TAG; mean of runs) was 5.05, the pIC50 (TAG; run 1) was 5.11 and the pIC50 (TAG; run 2) was 5.00.
With `CCN1C(=O)[C@H]2[C@@H](c3ccc(-c4ccccc4)c(OC)c3)N[C@@](CC(C)C)(C(=O)OC)[C@H]2C1=O` the IC50 cytotoxicity (DAPI nuclear signal decrease) (DAPI; mean of runs) was > 25 µM (inactive), the IC50 cytotoxicity (DAPI nuclear signal decrease) (DAPI; run 1) was greater than 25 µM and the IC50 cytotoxicity (DAPI nuclear signal decrease) (DAPI; run 2) was greater than 25 µM. The pIC50 (TAG; mean of runs) was 4.99, the pIC50 (TAG; run 1) was 4.91 and the pIC50 (TAG; run 2) was 5.09.
For `CCOC(=O)c1c(CN2CCNCC2)nc2ccc(Cl)cc2c1-c1ccccc1`, the IC50 cytotoxicity (DAPI nuclear signal decrease) (DAPI; mean of runs) was 16.8 µM (inactive), the IC50 cytotoxicity (DAPI nuclear signal decrease) (DAPI; run 1) was 17.1 µM and the IC50 cytotoxicity (DAPI nuclear signal decrease) (DAPI; run 2) was 16.5 µM. The IC50 (TAG; mean of runs) was > 25 µM (inactive), the pIC50 (TAG; run 1) was less than 4.60 and the pIC50 (TAG; run 2) was less than 4.60.
With `Nc1c(Cl)cc(-c2csc(N3CCCC3c3nc4cc(Cl)c(N5CCCCC5)cc4n3CCCO)n2)cc1Cl` (stereo not drawn) the IC50 cytotoxicity (DAPI nuclear signal decrease) (DAPI; mean of runs) was 15.6 µM (inactive), the IC50 cytotoxicity (DAPI nuclear signal decrease) (DAPI; run 1) was 14.5 µM and the IC50 cytotoxicity (DAPI nuclear signal decrease) (DAPI; run 2) was 16.6 µM. It also gave a pIC50 (TAG; mean of runs) of 5.45, a pIC50 (TAG; run 1) of 5.54 and a pIC50 (TAG; run 2) of 5.37.
In the case of `O=C(NCCc1c[nH]c2ccccc12)C1CCC(Cn2c(=S)[nH]c3ccccc3c2=O)CC1` (stereo not drawn), the IC50 cytotoxicity (DAPI nuclear signal decrease) (DAPI; mean of runs) was > 25 µM (inactive), the IC50 cytotoxicity (DAPI nuclear signal decrease) (DAPI; run 1) was greater than 25 µM and the IC50 cytotoxicity (DAPI nuclear signal decrease) (DAPI; run 2) was greater than 25 µM. It also gave a pIC50 (TAG; run 1) of less than 4.60 and a pIC50 (TAG; run 2) of 4.65.
In the case of `CCCCCC(=O)Nc1nc(C)c(-c2csc(Nc3cc(OC)ccc3OC)n2)s1`, the IC50 cytotoxicity (DAPI nuclear signal decrease) (DAPI; mean of runs) was > 25 µM (inactive), the IC50 cytotoxicity (DAPI nuclear signal decrease) (DAPI; run 1) was greater than 25 µM and the IC50 cytotoxicity (DAPI nuclear signal decrease) (DAPI; run 2) was greater than 25 µM. It also gave a pIC50 (TAG; mean of runs) of 4.84, a pIC50 (TAG; run 1) of 4.88 and a pIC50 (TAG; run 2) of 4.80.
Work on `OC1CC2CCC(C1)N2CCCN1c2ccccc2Sc2ccc(Cl)cc21` (stereo not drawn) yielded an IC50 cytotoxicity (DAPI nuclear signal decrease) (DAPI; run 1) of 19.4 µM, an IC50 cytotoxicity (DAPI nuclear signal decrease) (DAPI; run 2) greater than 25 µM and a pIC50 (TAG; run 1) of 4.99. It also gave a pIC50 (TAG; run 2) of less than 4.60.
`COc1ccc(CNC(=O)Nc2nc(C(N)Cc3ccc(Cl)cc3)cs2)cc1` (stereo not drawn) was tested, and the IC50 cytotoxicity (DAPI nuclear signal decrease) (DAPI; mean of runs) was 21.7 µM (inactive), the IC50 cytotoxicity (DAPI nuclear signal decrease) (DAPI; run 1) was 19.5 µM and the IC50 cytotoxicity (DAPI nuclear signal decrease) (DAPI; run 2) was 23.9 µM. For the same compound, the IC50 (TAG; mean of runs) was > 25 µM (inactive), the pIC50 (TAG; run 1) was less than 4.60 and the pIC50 (TAG; run 2) was less than 4.60.
In the case of `Cc1nn(-c2ccccc2)c2c1CC(=O)Nc1ccccc1-2`, the IC50 cytotoxicity (DAPI nuclear signal decrease) (DAPI; mean of runs) was > 25 µM (inactive), the IC50 cytotoxicity (DAPI nuclear signal decrease) (DAPI; run 1) was greater than 25 µM and the IC50 cytotoxicity (DAPI nuclear signal decrease) (DAPI; run 2) was greater than 25 µM. For the same compound, the pIC50 (TAG; mean of runs) was 5.05, the pIC50 (TAG; run 1) was 5.11 and the pIC50 (TAG; run 2) was 4.99.
In the case of `CCOC(=O)c1cc(-c2ccccc2)sc1NC(=S)Nc1cccc(C)n1`, the IC50 cytotoxicity (DAPI nuclear signal decrease) (DAPI; mean of runs) was > 25 µM (inactive), the IC50 cytotoxicity (DAPI nuclear signal decrease) (DAPI; run 1) was greater than 25 µM and the IC50 cytotoxicity (DAPI nuclear signal decrease) (DAPI; run 2) was greater than 25 µM. The IC50 (TAG; mean of runs) was > 25 µM (inactive), the pIC50 (TAG; run 1) was less than 4.60 and the pIC50 (TAG; run 2) was less than 4.60.
For `C[C@H](CO)N1C[C@H](C)[C@@H](CN(C)Cc2ccc(-c3ccccc3)cc2)Oc2c(NC(=O)Cc3ccccc3)cccc2C1=O`, the IC50 cytotoxicity (DAPI nuclear signal decrease) (DAPI; mean of runs) was > 25 µM (inactive), the IC50 cytotoxicity (DAPI nuclear signal decrease) (DAPI; run 1) was greater than 25 µM and the IC50 cytotoxicity (DAPI nuclear signal decrease) (DAPI; run 2) was greater than 25 µM. The pIC50 (TAG; mean of runs) was 4.95, the pIC50 (TAG; run 1) was 4.91 and the pIC50 (TAG; run 2) was 4.99.
`CCCCOc1ccc(CSC2=NCCN2)cc1[N+](=O)[O-]` was tested, and the IC50 cytotoxicity (DAPI nuclear signal decrease) (DAPI; mean of runs) was > 25 µM (inactive), the IC50 cytotoxicity (DAPI nuclear signal decrease) (DAPI; run 1) was greater than 25 µM and the IC50 cytotoxicity (DAPI nuclear signal decrease) (DAPI; run 2) was greater than 25 µM. For the same compound, the IC50 (TAG; mean of runs) was > 25 µM (inactive), the pIC50 (TAG; run 1) was less than 4.60 and the pIC50 (TAG; run 2) was less than 4.60.
In the case of `Cc1ccc(/C=N/NC(=O)c2cc(-c3cccnc3)nc3ccccc23)cc1`, the IC50 cytotoxicity (DAPI nuclear signal decrease) (DAPI; mean of runs) was > 25 µM (inactive), the IC50 cytotoxicity (DAPI nuclear signal decrease) (DAPI; run 1) was greater than 25 µM and the IC50 cytotoxicity (DAPI nuclear signal decrease) (DAPI; run 2) was greater than 25 µM. For the same compound, the IC50 (TAG; mean of runs) was > 25 µM (inactive), the pIC50 (TAG; run 1) was less than 4.60 and the pIC50 (TAG; run 2) was less than 4.60.
`COc1ccc(-n2nc(C(=O)Nc3ccc4c(c3)OCO4)c3c4ccccc4n(C)c3c2=O)cc1` was tested, and the IC50 cytotoxicity (DAPI nuclear signal decrease) (DAPI; mean of runs) was > 25 µM (inactive), the IC50 cytotoxicity (DAPI nuclear signal decrease) (DAPI; run 1) was greater than 25 µM and the IC50 cytotoxicity (DAPI nuclear signal decrease) (DAPI; run 2) was greater than 25 µM. For the same compound, the pIC50 (TAG; run 1) was 4.61 and the pIC50 (TAG; run 2) was less than 4.60.
In the case of `C[C@H](O)[C@@H]1CN2CCc3c([nH]c4ccc(-c5ccc6c(c5)OCO6)cc34)[C@@H]2C[C@@H]1N(C)C(=O)Nc1ccc(F)cc1`, the IC50 cytotoxicity (DAPI nuclear signal decrease) (DAPI; mean of runs) was > 25 µM (inactive), the IC50 cytotoxicity (DAPI nuclear signal decrease) (DAPI; run 1) was greater than 25 µM and the IC50 cytotoxicity (DAPI nuclear signal decrease) (DAPI; run 2) was greater than 25 µM. The pIC50 (TAG; mean of runs) was 4.96, the pIC50 (TAG; run 1) was 5.14 and the pIC50 (TAG; run 2) was 4.83.
Compound `c1ccc(-c2csc(NNC3=NCCCCC3)n2)cc1` has an IC50 cytotoxicity (DAPI nuclear signal decrease) (DAPI; run 1) greater than 25 µM, an IC50 cytotoxicity (DAPI nuclear signal decrease) (DAPI; run 2) greater than 25 µM and a pIC50 (TAG; mean of runs) of 5.44. For the same compound, the pIC50 (TAG; run 1) was 5.50 and the pIC50 (TAG; run 2) was 5.38.
For `CN(Cc1ccccc1)C(=O)c1ccc(Nc2nc(C(N)Cc3ccccc3)cs2)nc1` (stereo not drawn), the IC50 cytotoxicity (DAPI nuclear signal decrease) (DAPI; mean of runs) was > 25 µM (inactive), the IC50 cytotoxicity (DAPI nuclear signal decrease) (DAPI; run 1) was greater than 25 µM and the IC50 cytotoxicity (DAPI nuclear signal decrease) (DAPI; run 2) was greater than 25 µM. For the same compound, the pIC50 (TAG; run 1) was 4.68 and the pIC50 (TAG; run 2) was less than 4.60.
For `CO/N=C\CC(=O)Nc1ccc(Oc2ccccc2)cc1`, the IC50 cytotoxicity (DAPI nuclear signal decrease) (DAPI; mean of runs) was > 25 µM (inactive), the IC50 cytotoxicity (DAPI nuclear signal decrease) (DAPI; run 1) was greater than 25 µM and the IC50 cytotoxicity (DAPI nuclear signal decrease) (DAPI; run 2) was greater than 25 µM. For the same compound, the pIC50 (TAG; mean of runs) was 5.10, the pIC50 (TAG; run 1) was 5.04 and the pIC50 (TAG; run 2) was 5.17.
Work on `COC(=O)C=C1CCC2C3CCC4=CC(=O)C(Br)CC4(C)C3C(=O)CC12C` (stereo not drawn) yielded an IC50 cytotoxicity (DAPI nuclear signal decrease) (DAPI; run 1) greater than 25 µM, an IC50 cytotoxicity (DAPI nuclear signal decrease) (DAPI; run 2) of 22.3 µM and a pIC50 (TAG; mean of runs) of 5.01. For the same compound, the pIC50 (TAG; run 1) was 5.02 and the pIC50 (TAG; run 2) was 4.99.
`COC(=O)c1cc(C(=O)N2CCN(c3ccccc3OC)CC2)cc([N+](=O)[O-])c1` was tested, and the IC50 cytotoxicity (DAPI nuclear signal decrease) (DAPI; mean of runs) was > 25 µM (inactive), the IC50 cytotoxicity (DAPI nuclear signal decrease) (DAPI; run 1) was greater than 25 µM and the IC50 cytotoxicity (DAPI nuclear signal decrease) (DAPI; run 2) was greater than 25 µM. For the same compound, the pIC50 (TAG; mean of runs) was 4.88, the pIC50 (TAG; run 1) was 4.93 and the pIC50 (TAG; run 2) was 4.84.
`N#CC1=C(N)Oc2cc(Nc3ccccc3)ccc2C1c1ccncc1` (stereo not drawn) showed an IC50 cytotoxicity (DAPI nuclear signal decrease) (DAPI; run 1) of 23.2 µM, an IC50 cytotoxicity (DAPI nuclear signal decrease) (DAPI; run 2) greater than 25 µM and a pIC50 (TAG; run 1) of 4.70. The pIC50 (TAG; run 2) was less than 4.60.
In the case of `Cc1ccc(N2C(=O)C3CC(c4ccccc4)=C4C5C=CC(C6C(=O)N(c7ccc(C)cc7C)C(=O)C56)C4C3C2=O)c(C)c1` (stereo not drawn), the IC50 cytotoxicity (DAPI nuclear signal decrease) (DAPI; mean of runs) was > 25 µM (inactive), the IC50 cytotoxicity (DAPI nuclear signal decrease) (DAPI; run 1) was greater than 25 µM and the IC50 cytotoxicity (DAPI nuclear signal decrease) (DAPI; run 2) was greater than 25 µM. It also gave a pIC50 (TAG; run 1) of 4.65 and a pIC50 (TAG; run 2) of less than 4.60.
With `COc1cc(C(CCN2CCCCC2)c2c(OC)cc(OC)c3c(-c4ccccc4)cc(=O)oc23)cc(OC)c1OC` (stereo not drawn) the IC50 cytotoxicity (DAPI nuclear signal decrease) (DAPI; mean of runs) was > 25 µM (inactive), the IC50 cytotoxicity (DAPI nuclear signal decrease) (DAPI; run 1) was greater than 25 µM and the IC50 cytotoxicity (DAPI nuclear signal decrease) (DAPI; run 2) was greater than 25 µM. For the same compound, the IC50 (TAG; mean of runs) was > 25 µM (inactive), the pIC50 (TAG; run 1) was less than 4.60 and the pIC50 (TAG; run 2) was less than 4.60.
In the case of `Cc1noc(C)c1CSc1nc2[nH]ncc2c(=O)n1-c1ccccc1`, the IC50 cytotoxicity (DAPI nuclear signal decrease) (DAPI; run 1) was greater than 25 µM, the IC50 cytotoxicity (DAPI nuclear signal decrease) (DAPI; run 2) was greater than 25 µM and the pIC50 (TAG; mean of runs) was 5.36. It also gave a pIC50 (TAG; run 1) of 5.47 and a pIC50 (TAG; run 2) of 5.27.
`O=C(Nc1cccc(Cl)c1)c1nc[nH]c1C(=O)NCCCNC(=O)c1[nH]cnc1C(=O)Nc1cccc(Cl)c1` was tested, and the IC50 cytotoxicity (DAPI nuclear signal decrease) (DAPI; mean of runs) was > 25 µM (inactive), the IC50 cytotoxicity (DAPI nuclear signal decrease) (DAPI; run 1) was greater than 25 µM and the IC50 cytotoxicity (DAPI nuclear signal decrease) (DAPI; run 2) was greater than 25 µM. It also gave a pIC50 (TAG; run 1) of 5.02 and a pIC50 (TAG; run 2) of less than 4.60.
